Source: patent publication US20220241416A1, “METHODS FOR THE IDENTIFICATION OF SARM1 NADASE ACTIVITY INHIBITORS AND USES THEREOF” (Bar Ilan University, priority 2021, published 2022)

How the values were obtained:
zfSARM1 = molecular target: T1, zfSARM1 (Danio rerio, UniProt F1QWA8); experiment: Effect of hSARM1 inhibitors on zfSARM1 NADase activity (ADPR by HPLC); type: biochemical, Zebrafish; conditions: 50 μM NAD+; ADPR production by HPLC
T1 sequence (F1QWA8 1-713): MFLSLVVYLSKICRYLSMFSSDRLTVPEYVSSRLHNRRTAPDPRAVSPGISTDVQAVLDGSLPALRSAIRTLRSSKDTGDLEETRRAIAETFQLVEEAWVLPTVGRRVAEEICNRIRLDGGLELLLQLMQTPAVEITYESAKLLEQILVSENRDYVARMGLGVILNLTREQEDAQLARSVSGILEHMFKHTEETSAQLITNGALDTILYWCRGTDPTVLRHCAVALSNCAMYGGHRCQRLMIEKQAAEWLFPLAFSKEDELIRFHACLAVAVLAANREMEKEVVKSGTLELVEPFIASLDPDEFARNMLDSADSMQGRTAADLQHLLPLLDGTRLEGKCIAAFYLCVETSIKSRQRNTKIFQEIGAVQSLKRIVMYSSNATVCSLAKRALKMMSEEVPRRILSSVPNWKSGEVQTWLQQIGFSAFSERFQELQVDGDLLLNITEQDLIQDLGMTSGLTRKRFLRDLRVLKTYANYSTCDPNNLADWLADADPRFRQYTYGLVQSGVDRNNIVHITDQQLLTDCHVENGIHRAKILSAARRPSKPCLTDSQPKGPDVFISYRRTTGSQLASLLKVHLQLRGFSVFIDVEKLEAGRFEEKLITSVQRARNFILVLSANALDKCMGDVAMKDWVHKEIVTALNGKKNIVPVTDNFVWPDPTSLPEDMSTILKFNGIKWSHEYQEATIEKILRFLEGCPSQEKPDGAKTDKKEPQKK

hSARM1 = molecular target: T2, hSARM1 (Homo sapiens, UniProt Q6SZW1); experiment: High-throughput resazurin fluorescence inhibitor screen; type: biochemical; conditions: 1 mM NAM; pre-incubation 10 minutes at room temperature
T2 construct: hSARM1w.t; (26ERL . . . GPT724) that was not mutated in E642, was also expressed and isolated; 6xHis (N); TEV cleavage site (N); made in house; host or cells: HEK293F suspension cells
T2 sequence (Q6SZW1 with tags, fused parts or gaps): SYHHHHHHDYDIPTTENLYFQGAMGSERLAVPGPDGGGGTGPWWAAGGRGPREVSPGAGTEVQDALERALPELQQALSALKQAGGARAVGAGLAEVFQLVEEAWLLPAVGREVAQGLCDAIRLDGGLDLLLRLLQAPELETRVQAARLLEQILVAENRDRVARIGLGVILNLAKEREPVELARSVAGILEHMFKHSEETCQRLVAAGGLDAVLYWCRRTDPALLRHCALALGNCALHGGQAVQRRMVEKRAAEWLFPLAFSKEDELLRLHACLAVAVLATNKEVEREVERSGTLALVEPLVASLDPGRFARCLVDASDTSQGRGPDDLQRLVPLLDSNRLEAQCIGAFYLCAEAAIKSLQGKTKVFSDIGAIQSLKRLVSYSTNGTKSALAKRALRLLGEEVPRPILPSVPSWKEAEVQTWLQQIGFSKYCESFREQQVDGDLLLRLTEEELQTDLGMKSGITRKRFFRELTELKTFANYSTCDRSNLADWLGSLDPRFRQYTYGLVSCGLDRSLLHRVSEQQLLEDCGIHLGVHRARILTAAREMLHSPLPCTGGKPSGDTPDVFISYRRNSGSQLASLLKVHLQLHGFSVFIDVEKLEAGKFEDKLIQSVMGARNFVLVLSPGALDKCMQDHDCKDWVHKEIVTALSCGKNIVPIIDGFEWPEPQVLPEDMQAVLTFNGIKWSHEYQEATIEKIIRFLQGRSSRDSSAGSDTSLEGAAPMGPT
Procedure: The high-throughput inhibitor-screening assay was preformed using the MultiDrop 384 microplate dispenser (Thermo Scientific) and 1536-well black/black non-binding Microplates (Greiner Bio-One).
First, 10 nano-liters of each of the 142000 screened compounds, solubilized in DMSO, were plated using Echo® 550 Liquid Handler (Sunny vale, CA, USA). Then. 5 micro liters of purified SARM1 (at 50 Nano-Molar concentration) in 25 mM HEPES pH 7.5, 150 mM NaCl were added to each well for 10 minutes incubation in 25° C. Next, 2.5 Micro Liters of NAD+(in 0.25 Micro-Molar concentration, in 25 mM HEPES pH 7.5, 150 mM NaCl) were added to each well and incubated for 70 min at 37° C. The compounds concentration at this point were […].
Measurement of NAD+ concentrations were made by a modified enzymatic coupled cycling assay. […] Fluorescent signals were measured by PheraStar FS plate reader (BMG Labtech, Ortenberg, Germany) at 540-nm excitation and 590-nm emission wavelengths. […]
To discover new and effective inhibitors for hSARM1, we have applied a modified fluorescence assay for high throughput screening. The adaptations introduced in this assay aim to achieve: stable fluorescent signal over time, good sensitivity for inhibition by screened compounds, high signal-to-noise, good reproducibility, accuracy, and diminishing of false-positive readouts. […]

NC(=O)c1cccnc1 [NAM, nicotinamide, reference compound]
IC50 (zfSARM1): 227 µM
fluorescence output response (hSARM1): hSARM1 inhibition
